Counter-ions that a name gives are not always drawn.

What is called Kd is a measure of binding affinity in units of concentration. A low value points to tighter binding. One may read the IC50 as the point on the concentration scale where inhibition reaches its midpoint.

One assay has as its target LC3 proteins. Nature of the assay: ITC and NMR titrations. It counts as binding. The settings on record: by ITC and NMR. The method, then:
All ITC experiments were performed at 25 °C using a VP-ITC microcalorimeter (MicroCal Inc, MA, USA) and analyzed with the ITC-Origin 7.0 software (MicroCal Inc.) based on a "one-site binding" reaction. […] Dilution heat of both compounds was measured upon titration of the stocks into buffer. All experiments were performed on a Bruker Avance spectrometer operating at a proton frequency of 500, 600 and 700 MHz at 298 K.
In general terms: Isothermal titration calorimetry measures the heat released or taken up as one component is titrated into another.

Assay [1] has as its system LC3B. Nature of the assay: cellular autophagy screening: LC3B spots by immunocytochemistry and automated confocal imaging. It counts as cell-based. The settings on record: relative to negative DMSO control, 100 µM, 1 hour; for LC3B inhibition cell based Fold increase of LC3B spots [DMSO control 1.0]: Table 1-a, n.e. means no effect. The method, then: For screening purposes, cells were seeded in 384 well plates and left over night for attachment.
Afterwards, medium was removed and 4 % (w/v) paraformaldehyde (PFA) in PBS buffer was added to the cells for 20 minutes, incubated at room temperature. Cells were permeabilized with 0.1 % (v/v) Triton X-100 for 10 min at room temperature and washed with PBS. Cells were blocked with 3 % (w/v) bovine serum albumin (BSA) in PBS for 45 minutes at 37 °C and then incubated with anti-LC3B (PM036, MBL) or anti-p62 (PM045 or M162-3, MBL) primary antibody diluted in 0.3 % BSA (1:2000 or 1:500) for 1.5-2 hours at 37 °C. Cells were washed three times with PBS.
384 well plates were then analyzed with an automated confocal microscope Opera (PerkinElmer) enabling high throughput high content screening image analysis. […] A water immersion 60x objective was used for optical slicing and stacking (5x0.5 µm stacks). […] Signal was detected with a fast gated CCD camera. Acapella software (PerkinElmer) is an algorithm based high content imaging and analysis software used in multi-parametric multiplex assays. Acapella was used to follow cell viability (i.e. number of cells) and the number of LC3B and p62 spots per cell.
The LC3B protein is a ubiquitin-like protein that can be conjugated to phosphatidylethanolamine (PE) in the membrane of the incipient autophagosome. The nonlipidated and lipidated forms are usually referred to as LC3B-I and LC3B-II, respectively. […] Autophagic flux is often inferred on the basis of LC3B-II turnover, measured by western blot (WB) or immunofluorescence (IF) in the presence and absence of lysosomal degradation. […] Lysosomal degradation can be prevented e.g. through the use of compounds that neutralize the lysosomal pH such as Bafilomycin A1 (BafA1) or chloroquine (CQ). […] An additive or supra-additive effect in LC3B-II levels (WB) and LC3B-positive punctae numbers (IF) may indicate that the treatment enhances autophagic flux. […] This assay can be complemented by simultaneous monitoring of autophagosomal substrates or autophagosomal substrate receptors (e.g. SQSTM1/p62) by WB and/or IF. For example, an increase in LC3B-II levels in combination with the accumulation of SQSTM1/p62 is indicative of a blockage of the autophagy pathway at terminal stages.

In assay [2] the target is T1, LC3B (Homo sapiens, UniProt Q9GZQ8).
T1 construct: made in house; host or cells: E. coli Rosetta (DE3)
The assay is described as follows: AlphaScreen interaction displacement assay (GST-LC3B / biotin-LIRtide). It counts as binding. The settings on record: Table 1-a, n.e. means no effect. The method, then:
The AlphaScreen assay contained 50 mM Tris (pH 7.5), 100 mM NaCl, 0.01% Tween 20, 2 mM DTT, 1 % DMSO and 2-30 nM GST-LC3B and biotin-LIRtide 2-30 nM. The concentrations of GST-LC3B and biotin-LIRtide were experimentally chosen from a cross-titration assay exploring the different combinations of for each batch of protein used and when a new batch of buffer was prepared.
A gene encoding for human LC3B protein inserted in a pET-GST expression vector was used as a template. Rosetta (DE3) competent cells were transformed by started procedure, plated on an LB agar plate with ampicillin (100 µg/ml) and left overnight at 37 °C. Overnight culture was prepared from a single colony and shaken at 180 rpm at 37 °C. LB medium with ampicillin was inoculated with overnight culture (10 ml per 500 ml of LB) and shaken until the optical density at 600 nm (OD600) reached a value of approximately 0.6. Protein expression was then induced with 400 µM IPTG and further incubated for 4 hours. Bacterial culture was centrifuged for 20 minutes at 6000 rpm at 4 °C. The pellet was then resuspended in lysis buffer (20 mM TRIS-HCl pH 7.5, 10 mM EDTA, 5 mM EGTA, 150 mM NaCl, 0.5 % NP40, 1 % Triton X-100, 1 mM DTT, 2 mg/ml lysozyme, 0.05 U/µl benzonase, 1x protease inhibitor cocktail). Lysate was then stored at -20 °C over night. Sample was thawed in water bath and sonicated on ice (40 % amplitude, 30 seconds pulse/30 seconds pause cycle). Lysate was centrifuged at 10000xg at 4 °C for half an hour. Meanwhile, 500 µl of glutathione sepharose beads was equilibrated with lysis buffer and then added to the supernatant. The mixture was incubated and rotated at room temperature for 2 hours. After binding of the protein to the beads, beads were spun down at 500xg at 4 °C for 5 minutes. Pellet was then washed with cold wash buffer at least four times (20 mM Tris-HCl pH 7.5, 10 mM EDTA, 5 mM EGTA, 150 mM NaCl, 1 mM DTT), dried and stored in 5 % glycerol at 4 °C.
A general note: In Alpha technology, singlet oxygen from a donor bead excites a nearby acceptor bead.

For another assay, the system named is U2OS cells. Nature of the assay: autophagic flux by confocal microscopy and western blotting. The settings on record: 100 nM, alone. The format is cell-based, Human. The method, then:
[…]. After harvesting, cells were lysed with radioimmunoprecipitation assay (RIPA) buffer (50 mM Tris-HCl, pH 7.5, 150 mM NaCl, 0.5 % deoxycholate, 1 % Triton X-100, 0.1 % SDS and 1x protease inhibitors) and left on ice for 30 minutes. Cell lysates were clarified by centrifugation at 10000xg for 20 min at 4 °C. Protein concentrations of the supernatants were determined by BCA assay and the absorbance was measured at 562 nm. SDS-PAGE and WB was performed.
For screening purposes, cells were seeded in 384 well plates and left over night for attachment. […]. For controls, cells were treated with 250 nM torin and/or 100 nM BafA1 for 2 hours.
Afterwards, medium was removed and 4 % (w/v) paraformaldehyde (PFA) in PBS buffer was added to the cells for 20 minutes, incubated at room temperature. Cells were permeabilized with 0.1 % (v/v) Triton X-100 for 10 min at room temperature and washed with PBS. Cells were blocked with 3 % (w/v) bovine serum albumin (BSA) in PBS for 45 minutes at 37 °C and then incubated with anti-LC3B (PM036, MBL) or anti-p62 (PM045 or M162-3, MBL) primary antibody diluted in 0.3 % BSA (1:2000 or 1:500) for 1.5-2 hours at 37 °C. Cells were washed three times with PBS. Secondary Alexa Fluor 488 - labeled antibodies (A-11008, Invitrogen) were diluted in 0.3 % BSA (1:2500) and incubated on cells for 15 minutes at 37 °C. Cells were washed once with PBS, incubated with DRAQ5 (#4084, Cell Signaling) diluted in PBS (1:5000) for 10 minutes and washed three times with PBS.
384 well plates were then analyzed with an automated confocal microscope Opera (PerkinElmer) enabling high throughput high content screening image analysis. […] Signal was detected with a fast gated CCD camera. […]
The LC3B protein is a ubiquitin-like protein that can be conjugated to phosphatidylethanolamine (PE) in the membrane of the incipient autophagosome. […] Autophagic flux is often inferred on the basis of LC3B-II turnover, measured by western blot (WB) or immunofluorescence (IF) in the presence and absence of lysosomal degradation. […]

At LC3 proteins, `CO[C@@H]1[C@@H](OC(N)=O)[C@@H](O)[C@H](Oc2ccc3c(O)c(NC(=O)c4ccc(O)c(CC=C(C)C)c4)c(=O)oc3c2C)OC1(C)C` [Compound 2-0, Novobiocin Sodium Salt] yielded a Kd of 5 to 50 µM.
On to `COC(=O)[C@H](CC(C)C)NC(=O)c1cccc(CSC2=NCN(Cc3cccnc3)CN2)c1` [Compound I-12, methyl(3-(((5-(pyridin-3-ylmethyl)-1,4,5,6-tetrahydro-1,3,5-triazin-2-yl)thio)methyl)benzoyl)leucinate], for which, in the assay on LC3B [1], the “LC3B inhibition cell based Fold increase of LC3B spots [DMSO control 1.0]” value was found to be 5.0. Moreover, at LC3B [2] (read-out: LC3B inhibition cell free IC50), the IC50 was found to be 8.9 µM.
Take `Fc1ccc(CN2CN=C(SCc3ccc(Br)cc3)NC2)cc1` [Compound I-14, 6-((4-bromobenzyl)thio)-3-(4-fluorobenzyl)-1,2,3,4-tetrahydro-1,3,5-triazine]: in the assay with LC3B [1], the “LC3B inhibition cell based Fold increase of LC3B spots [DMSO control 1.0]” value amounted to 5.8. Further, the “LC3B inhibition cell free IC50” value on LC3B [2] was “n.e”.
The corresponding values for `Fc1ccc(CN2CN=C(SCc3ccc(Cl)cc3)NC2)cc1` [Compound I-15, 6-((4-chlorobenzyl)thio)-3-(4-fluorobenzyl)-1,2,3,4-tetrahydro-1,3,5-triazine] are 5.9 and “n.e”.
The corresponding values for `Fc1ccc(CN2CN=C(SCc3cccc(Oc4ccccc4)c3)NC2)cc1` [Compound I-16, 3-(4-fluorobenzyl)-6-((3-phenoxybenzyl)thio)-1,2,3,4-tetrahydro-1,3,5-triazine] are “n.e” and “n.e”.
As for `Fc1ccc(CN2CN=C(SCc3ccc(Br)cc3)NC2)cc1F` [Compound I-17, 6-((4-bromobenzyl)thio)-3-(3,4-difluorobenzyl)-1,2,3,4-tetrahydro-1,3,5-triazine], in the assay with LC3B [1], the “LC3B inhibition cell based Fold increase of LC3B spots [DMSO control 1.0]” value is given as 4.2. Also, the “LC3B inhibition cell free IC50” value on LC3B [2] is “n.e”.
Take `CO/C1=C\C(C)=C\[C@@H](C)[C@@H](O)[C@@H](C)C/C(C)=C/C=C/[C@H](OC)[C@@H]([C@@H](C)[C@@H](O)[C@H](C)[C@@]2(O)C[C@@H](O)[C@H](C)[C@@H](C(C)C)O2)OC1=O` [bafilomycin A1, reference compound]: in the assay with LC3B [1], the “LC3B inhibition cell based Fold increase of LC3B spots [DMSO control 1.0]” value is on record as 5.5. Moreover, the “LC3B Inhibition cell based Fold increase of LC3B spots” value in the assay on LC3B [1] (Table 2a) is reported as 5.5. Also, the “amount of LC3B-positive spots and lipidated LC3B (LC3B-II)” value with U2OS cells was “increased”.

For the origin of these results see patent EP3184514A1, “AUTOPHAGY INHIBITORS” (Deutsches Krebsforschungszentrum, priority 2015, dated 2017).
